Patent US11382884B2, “Method for reducing lung infection” (priority 2017, dated 2022)
Read-outs that look alike come from different tables or passages of the source.

Experiments:
[1] = Description: (§1) Subjects are then discharged and treatment continued twice a day for four weeks. Subjects are monitored for a further four weeks, bringing the total study time to 10 weeks. Sputum is collected by induction with nebulised 3% hypertonic saline at 8-10 L/min for […]. Samples are collected prior to treatment, and at 2, 6 and 10 weeks, processed according to the relevant protocol and stored at −80° C.
(§2) Expectorated sputum is stored in RNAlater, total RNA is extracted using a Qiagen RNEasy® or similar extraction kit, converted into cDNA, and inflammatory markers are monitored using qPCR as described by Sivaneson et al. (Sivaneson, M., Mikkelsen, H., Ventre, I., Bordi, C., and Filloux, A. (2011). Two-component regulatory systems in Pseudomonas aeruginosa: an intricate network mediating fimbrial and efflux pump gene expression. Mol Microbiol 79, 1353-1366) and quantified relative to known housekeeping genes, such as actin and/or GAPDH.
(§3) Expectorated sputum is frozen directly without processing and assayed for inflammatory markers as above. As a measure of structural damage, levels of matrix metalloproteinases (MMPs) and tissue inhibitors of metalloproteinases (TIMPs) are measured using gelatin zymography and immunoassays, respectively, as previously described (Gaggar et al., Eur Respir J. 2011 38(3): 721-727; Garratt et al., Eur Respir J. 2015 46(2):384-94). The amount of iron in the sputum is quantified by ICP-MS as previously described (Hunter et al., MBio 2013, 4(4):1-8). The amount of iron-binding proteins is assessed using immunoassays. Oxidative stress is assessed by measuring glutathione (GSSG and GSH) using immunoassays as previously described (Kettle et al., Eur Respir J. 2014 44(1):122-9).

[2] = remark: listed apart in the source
Description: Subjects were then discharged and treatment was continued twice a day for four weeks. Patients were monitored for a further four weeks, bringing the total study time to 10 weeks. At each study visit, lung function was measured by spirometry. Data was recorded as the best of three attempts, and results were expressed as % predicted.

[3] = remark: listed apart in the source
Description: as §1
as §2, with “RNAlater®,” for “RNAlater,”
as §3, with “MBio. 2013” for “MBio 2013,”

P. aeruginosa [4] = conditions: after two weeks of treatment, 300 mg EDTA/day nebulised with tobramycin; sputum; FIG. 25
Description: Patients were monitored for a further four weeks, bringing the total study time to 10 weeks.

[5] = remark: listed apart in the source
Description: A single centre, randomised, double blind, crossover study of cystic fibrosis subjects is carried out. Subjects are randomised for treatment with inhaled CaEDTA or saline (placebo) 2-4 times a day for two weeks.
Iron levels, inflammatory markers, MMP/TIMP and FEV1 are monitored as above. Myeloperoxidase activity are also assayed as a measure of neutrophilic inflammation as previously described (Gaggar et al., 2011). 3-chlorotyrosine is measured as a biomarker of the potent oxidant hypochlorous acid. Levels are measured using stable isotope dilution gas chromatography with mass spectrometry (Gaggar et al., 2011). Protein carbonyls are measured as an indicator of ROS using a commercial immunoassay kit (Gaggar et al., 2011).

[6] = in vivo; cited from earlier work
[7] = in vivo; cited from earlier work; remark: listed apart in the source
[8] = remark: listed apart in the source
Description: Subjects with CF who need treatment with dry powder tobramycin are allocated into four cohorts and receive 112 mg dry powder twice a day for 28 days. In addition, Cohort 1 (patients>18 years) receives ascending doses of dry powder CaEDTA (37.5 mg BID for 1 week; 75 mg BID for 2 weeks, 150 mg BID for 1 week). Patients in cohort 2 (>18 years) receive CaEDTA (37.5 mg BID for 1 week; 75 BID for 2 weeks; 75 mg QID for 1 week). Patients in cohort 3 (12-18 years) receive CaEDTA (37.5 mg BID for 1 week; 75 mg BID for 2 weeks, 150 mg BID for 1 week. Finally, a control cohort receives tobramycin alone for 28 days.
Sputum samples are collected weekly and assessed for markers of infection and inflammation. Bacteria are monitored by sputum colony counts. As a measure of structural damage, levels of matrix metalloproteinases (MMPs) and tissue inhibitors of metalloproteinases (TIMPs) are measured using gelatin zymography and immunoassays, respectively, as previously described (Gaggar et al., Eur Respir J. 2011 38(3): 721-727; Garratt et al., Eur Respir J. 2015 46(2):384-94). The amount of iron in the sputum is quantified by ICP-MS as previously described (Hunter et al., 2013). The amount of iron-binding proteins is assessed using immunoassays. Myeloperoxidase activity is also assayed as a measure of neutrophilic inflammation as previously described (Gaggar et al., 2011). 3-chlorotyrosine is measured as a biomarker of the potent oxidant hypochlorous acid. Levels are measured using stable isotope dilution gas chromatography with mass spectrometry (Gaggar et al., 2011). Protein carbonyls are measured as an indicator of reactive oxygen species (ROS) using a commercial immunoassay kit (Gaggar et al., 2011). Oxidative stress is assessed by measuring glutathione (GSSG and GSH) using immunoassays as previously described (Kettle et al., 2014). Gene expression of inflammatory and oxidative stress markers (e.g. IL-8, IL-6, TNFa) will also be monitored by Nanostring, and proteins will be measured by ELISA. Oxidative stress can also be measured via metabolites, such as molondialdehyde (colorimetric assay) or 8-isoprostane (ELISA). Iron will be measured by elemental analysis using laser ablation-inductively coupled plasma-mass spectrometry (LA-ICP-MS).

P. aeruginosa [9] = conditions: in vivo; cited from earlier work
[10] = EDTA group compared with placebo group

SMILES: O=C(O)CN(CCN(CC(=O)O)CC(=O)O)CC(=O)O [EDTA, ethylene diamine tetraacetic acid]
- gene expression of inflammatory markers (qPCR, sputum) [1, 10]: mean reduction
- inflammatory markers in sputum [1, 10]: reduction
- FEV1 ([1]; compared with placebo (carrier only)): increase
- balance between MMPs and TIMPs ([1]; especially MMP-9 and TIMP-1): change in the balance
- iron levels in sputum ([1]; human, in vivo): decrease
- mean change in FEV1 ([2]; 2, 6 and 10 weeks after start of treatment, FIG. 26): clear improvement in lung function
- dose dependence of effect on lung function ([2]; mg EDTA/kg body weight, FIG. 27): dose-dependent effect on lung function
- gene expression of inflammatory markers (qPCR, sputum) [3, 10]: mean reduction
- inflammatory markers in sputum [3, 10]: reduction
- balance between MMPs and TIMPs ([3]; especially MMP-9 and TIMP-1): change in the balance
- reduction in colony counts (P. aeruginosa [4]): > 400 fold
- MMP/TIMP balance ([5]; compared with placebo): altered
- levels of inflammatory markers ([5]; compared with placebo): reduced levels
- levels of iron ([5]; compared with placebo): reduced levels
- mean FEV1 ([5]; compared with placebo): increased
- mean levels of carbonyls ([5]; human, in vivo): lower mean levels
- mean levels of chlorotyrosine ([5]; human, in vivo): lower mean levels
- myeloperoxidase activity ([5]; human, in vivo): reduced
- bronchoconstriction [6]: concentration-dependent bronchoconstriction
- effect on FEV1 [7]: no effect on FEV1
- inflammatory markers in sputum [8, 10]: reduction
- FEV1 ([8]; compared with control patients): increase
- bacterial load in sputum ([8]; compared with control patients): reduction
- balance between MMPs and TIMPs ([8]; especially MMP-9 and TIMP-1): change in the balance
- iron levels in sputum ([8]; human, in vivo): decrease
- treatment of bacterial infections by inhaled EDTA alone (P. aeruginosa [9]): does not treat bacterial infections
